Source: ChEMBL document CHEMBL1146771, “Identification of purine inhibitors of phosphodiesterase 7 (PDE7)” (Bioorg Med Chem Lett, 2004)

What was measured:
[1] = Inhibitory concentration ratio of PDE1 to that of PDE7
[2] = Inhibitory concentration ratio of PDE5 to that of PDE7
[3] = Inhibitory concentration ratio of PDE3 to that of PDE7
[4] = Inhibition of Phosphodiesterase 7
[5] = Inhibitory concentration ratio of PDE4 to that of PDE7
[6] = molecular target: Phosphodiesterase 1 (Bos taurus, UniProt Q01061+P14100); test: Inhibitory concentration against phosphodiesterase 1 from bovine, calmodulin; format: protein assay
[7] = molecular target: cGMP-specific 3',5'-cyclic phosphodiesterase (Homo sapiens, UniProt O76074); test: Inhibitory concentration against phosphodiesterase 5 (PDE5) from human platelet
[8] = molecular target: T1, cGMP-dependent 3',5'-cyclic phosphodiesterase (Rattus norvegicus, UniProt Q01062); test: Inhibitory concentration against phosphodiesterase 2 from rat kidney
T1 sequence (Q01062 whole entry): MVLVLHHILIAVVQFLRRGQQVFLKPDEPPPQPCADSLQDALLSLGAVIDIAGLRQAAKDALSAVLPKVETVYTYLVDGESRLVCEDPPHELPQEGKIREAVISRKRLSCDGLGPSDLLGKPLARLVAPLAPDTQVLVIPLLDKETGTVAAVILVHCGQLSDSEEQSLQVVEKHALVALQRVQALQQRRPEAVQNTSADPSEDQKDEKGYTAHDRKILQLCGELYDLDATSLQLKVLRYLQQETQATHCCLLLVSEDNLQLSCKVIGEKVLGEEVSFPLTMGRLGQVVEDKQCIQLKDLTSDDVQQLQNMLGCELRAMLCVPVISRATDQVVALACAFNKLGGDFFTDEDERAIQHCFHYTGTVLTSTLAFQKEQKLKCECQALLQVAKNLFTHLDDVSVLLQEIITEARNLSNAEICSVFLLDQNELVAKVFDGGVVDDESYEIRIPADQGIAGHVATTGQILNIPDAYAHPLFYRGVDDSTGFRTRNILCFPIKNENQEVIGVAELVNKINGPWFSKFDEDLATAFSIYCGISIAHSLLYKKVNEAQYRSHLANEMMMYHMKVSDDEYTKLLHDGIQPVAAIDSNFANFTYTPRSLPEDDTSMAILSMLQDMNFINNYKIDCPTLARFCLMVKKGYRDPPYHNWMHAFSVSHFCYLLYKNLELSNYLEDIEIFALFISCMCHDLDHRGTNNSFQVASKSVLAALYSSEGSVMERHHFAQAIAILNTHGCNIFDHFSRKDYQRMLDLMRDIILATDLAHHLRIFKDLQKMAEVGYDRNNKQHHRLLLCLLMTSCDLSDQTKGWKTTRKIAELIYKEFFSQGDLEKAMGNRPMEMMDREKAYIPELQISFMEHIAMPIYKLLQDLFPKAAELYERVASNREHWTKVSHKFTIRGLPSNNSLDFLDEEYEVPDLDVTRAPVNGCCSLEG

[9] = molecular target: Phosphodiesterase 3 (Homo sapiens, UniProt Q14432+Q13370); test: Inhibitory concentration against phosphodiesterase 3 from human platelet
[10] = Inhibitory concentration ratio of PDE2 to that of PDE7
[11] = species on record: Rattus norvegicus; test: Inhibition of Phosphodiesterase 7 at 1 uM
[12] = species on record: Rattus norvegicus

| Ratio [1] | Ratio [2] | Ratio [3] | IC50 [4] [nM] | Ratio [5] | IC50 [8] [nM] | Ratio [10] | SMILES | other results |
| --- | --- | --- | --- | --- | --- | --- | --- | --- |
|  | 0.55 | 0.11 | 1600 | 0.046 |  |  | CCOC(=O)c1sc(Nc2nc(NS(=O)(=O)c3ccc(S(C)(=O)=O)cc3)c3ncn(CC)c3n2)nc1C |  |
|  | 4.1 | 21 | 370 |  |  |  | CCOC(=O)c1sc(Nc2nc(OCc3ccc(S(C)(=O)=O)cc3)c3ncn(CC)c3n2)nc1C |  |
| 2.8 | 4.6 | 17 | 150 | 1.3 |  | 3.6 | CCOC(=O)c1sc(Nc2nc(N3CCc4cc(OC)c(OC)cc4C3)c3c(ncn3CC)n2)nc1C |  |
|  |  |  | 150 |  | 1700 |  | CCOC(=O)c1sc(Nc2nc(NCc3ccc(OC)c(OC)c3)c3c(ncn3CC)n2)nc1C | IC50 [6]: 220 nM; IC50 [7]: 270 nM; IC50 [9]: 580 nM |
| 12 | 1.1 | 12 | 820 | 7 |  | 11 | CCn1cnc2nc(Nc3nc(C)c(C(=O)Nc4ccccc4)s3)nc(NCc3ccc(OC)c(OC)c3)c21 |  |
| 18 | 0.9 | 130 | 55 | 22 |  | 25 | CCOC(=O)c1sc(Nc2nc(NCc3ccc(S(C)(=O)=O)cc3)c3c(ncn3CC)n2)nc1C |  |
| 1.7 | 15 | 33 | 100 | 24 |  | 14 | CCOC(=O)c1sc(Nc2nc(NCc3cc(OC)c(OC)c(OC)c3)c3c(ncn3CC)n2)nc1C |  |
|  |  |  | > 10000 |  | > 10000 |  | CN(C(=O)CCCOc1ccc2[nH]c(=O)ccc2c1)C1CCCCC1 [CILOSTAMIDE] | IC50 [6]: > 10000 nM; IC50 [7]: 7150 nM |
|  |  |  | > 10000 |  | > 10000 |  | COc1ccc(C2CNC(=O)C2)cc1OC1CCCC1 (stereo not given) [ROLIPRAM] | IC50 [6]: > 10000 nM; IC50 [9]: > 10000 nM |
| 1.3 | 2.9 | 2.5 | 940 | 3.8 |  | 2.3 | CCOC(=O)c1sc(Nc2nc(NCc3ccc(OCc4ccccc4)c(OC)c3)c3c(ncn3CC)n2)nc1C |  |
|  |  |  | > 10000 |  | > 10000 |  | CCCc1nn(C)c2c(=O)[nH]c(-c3cc(S(=O)(=O)N4CCN(C)CC4)ccc3OCC)nc12 |  |

Continued, compound first:

| SMILES | Ratio [1] | Ratio [2] | Ratio [3] | IC50 [4] [nM] | Ratio [5] | IC50 [8] [nM] | Ratio [10] | other results |
| --- | --- | --- | --- | --- | --- | --- | --- | --- |
| CCOC(=O)c1sc(Nc2nc(NCc3ccc4c(c3)OCO4)c3c(ncn3CC)n2)nc1C | 19 | 0.38 | 11 | 110 |  |  |  |  |
| CCOC(=O)c1sc(Nc2nc(NCc3ccc(S(N)(=O)=O)cc3)c3c(ncn3CC)n2)nc1C |  |  |  | 11 |  |  |  |  |
| COc1nc2c([nH]1)c(=O)n(C)c(=O)n2CC(C)C |  |  |  | > 10000 |  | > 10000 |  | IC50 [6]: 1800 nM; IC50 [7]: 3020 nM; IC50 [9]: > 10000 nM |
| COc1cc(-c2ccc(=O)[nH]n2)ccc1OC(F)F [ZARDAVERINE] |  |  |  | > 10000 |  | > 10000 |  | IC50 [6]: > 10000 nM; IC50 [7]: > 10000 nM; IC50 [9]: 110 nM |
| CCOC(=O)c1sc(Nc2nc(NCc3ccc(S(N)(=O)=O)cc3)c3ncn(CC)c3n2)nc1C | 200 | 13 | > 5000 | 10 | 16 |  | 45 |  |
| CCn1cnc2nc(Nc3nc(C)cs3)nc(NCc3ccc(OC)c(OC)c3)c21 |  |  |  |  |  |  |  | inhibition [11]: 15% |
| Nc1ncnc2c1ncn2[C@@H]1O[C@@H]2COP(=O)(O)O[C@H]2[C@H]1O |  |  |  |  |  |  |  | Km [12]: 0.2 µM |
